Test results as given in PMC4666608, “Metabolic Profiling of Chicken Embryos Exposed to Perfluorooctanoic Acid (PFOA) and Agonists to Peroxisome Proliferator-Activated Receptors” (PLoS ONE, 2015).
Marks after values point to notes of the source that are not given here.

Columns and labels:
chicken embryos [1] = details: injection before start of incubation; cited from earlier work
chicken embryos [2] = assay: Metabolic profiling of blood plasma (GC-MS, LC-MS, OPLS-DA); type: in vivo, Gallus gallus domesticus; details: for Mean concentration relative to control, feature Win006_C03 / Mean concentration relative to control, feature Win011_C02 (Isoleucine) / Mean concentration relative to control, feature Win027_C13 / Mean concentration relative to control, feature Win031_C03 (Citric acid) / Mean concentration relative to control, feature Win034_C08 (Tyrosine) / Mean concentration relative to control, feature Win034_C09 (Tyrosine) / Mean concentration relative to control, feature Win039_C07 / Mean concentration relative to control, feature Win043_C02 (Cystathionine) / Mean concentration relative to control, feature Win061_C01 / Mean concentration relative to control, feature Win066_C03 / Mean concentration relative to control, feature Win088_C02: GC
Method: Controls were injected with 20 μL vehicle only (DMSO).
Plasma was collected and stored at -70°C.
Metabolites in allantoic fluid and blood plasma were analyzed using gas chromatography-mass spectrometry (GC-MS) and liquid chromatography-mass spectrometry (LC-MS) as described in S1 Methods. Prior to GC-MS and LC-MS analysis, allantoic fluid (100 μL) and blood plasma (50 μL) were extracted. To each sample, 900 μL (allantoic fluid) or 450 μL (blood plasma) of extraction buffer (90/10 v/v methanol:water) including all internal standards were added. Standards for GC-MS were proline, succinic acid, glutamic acid, salicylic acid, alpha-ketoglutarate, putrescine, myristic acid, hexadecanoic acid, cholesterol, and sucrose. Standards for LC-MS were Val-Tyr-Val, Leu-enkephalin, sulfadimethoxine and reserpine. Samples were homogenized by shaking in a bead mill at a frequency of 30 Hz for 3 minutes and proteins were precipitated at +4°C on ice. The samples were centrifuged at +4°C, 14000 rpm, for 10 min. Then, 200 μL supernatant was transferred to a GC microvial and 200 μL was transferred to an LC microvial, and solvents were evaporated. Samples from the four replicate experiments were analyzed using in chronological order and within each replicate experiment the run order of the individual samples was randomized.
Multivariate statistical analyses of metabolite profiles were performed using the software package SIMCA-P version 13.0 (Umetrics, Umeå, Sweden). Data was centered and scaled to variance 1 (UV scaling) prior to modelling. To reduce unintended systematic variation caused by sample processing and instrument drift, GC-MS and LC-MS metabolite amounts (expressed as the area under the chromatographic peak) were normalized by Orthogonal Partial Least Squares analysis (O2PLS) prior to multivariate data analysis. O2PLS finds common (predictive) and unique (orthogonal) variation in two data matrices. If applied to find the common variation between the data matrix containing the measured metabolite concentrations and a matrix containing only the internal standards, the only common (predictive) variation expected is due to the unintended systematic variation. By deleting the contribution of the predictive latent variables, that variation can be removed from the data. Models obtained after this normalization contain in general less latent variables, and this simplification helps when deciding on the number of latent variables to be used. Following normalization, GC-MS and LC-MS data were analyzed together. Initially, a global Principal Component Analysis (PCA) was performed to get an overview of groups and trends and to identify outliers. Projections to latent structures by means of Orthogonal Partial Least Squares Discriminant Analysis (OPLS-DA) was used to model the relationship between the X-matrix (metabolite concentrations) and the Y matrix (class, i.e. exposure group or sex), and to find x-variables that were related to class belonging. OPLS-DA is a supervised prediction and regression method that rotates the projection plane to find the maximum covariance between the data and the class assignment. All groups were first analyzed together in a 5-class OPLS-DA and then each exposure group was analyzed against the control group in a 2-class OPLS-DA. Sex differences were analyzed both using the whole data set and in each group separately using 2-class OPLS-DA, with females and males as the two classes. Only variables with 80% or more nonzero values were included in the statistical models. […] The validity of each model was also checked using CV-ANOVA (ANOVA of the cross-validated residuals). A significance level of p < 0.05 was used. For each model, R ^2 X, R ^2 Y and Q ^2 values were calculated, where R ^2 X is a measure of the fraction of x variation modeled in the extracted latent variables, R ^2 Y is a measure of the fraction of y variation modeled and Q ^2 is an estimate of the predictive ability of the model and is calculated by cross-validation. […]

For O=C(O)C(F)(F)C(F)(F)C(F)(F)C(F)(F)C(F)(F)C(F)(F)C(F)(F)F [PFOA, perfluorooctanoic acid], the “Dose at which increased mortality was reported” value (chicken embryos [1]) is given as 5 mg/kg egg, the “Doses with lack of effect on hatching success or mortality” value (chicken embryos [1]) is given as “up to 10 mg/kg egg” and the “Lowest observed effect level, increased embryo mortality” value (chicken embryos [1]) is given as 2 mg/kg egg. For the same compound, the “Mean concentration relative to control, feature Win006_C03” value (chicken embryos [2]; PFOA 50) was 1.1*, the “Mean concentration relative to control, feature Win011_C02 (Isoleucine)” value (chicken embryos [2]; PFOA 50) was 1.1 and the “Mean concentration relative to control, feature Win027_C13” value (chicken embryos [2]; PFOA 50) was 0.9. The “Mean concentration relative to control, feature Win031_C03 (Citric acid)” value (chicken embryos [2]; PFOA 50) was 1, the “Mean concentration relative to control, feature Win034_C08 (Tyrosine)” value (chicken embryos [2]; PFOA 50) was 1.1 and the “Mean concentration relative to control, feature Win034_C09 (Tyrosine)” value (chicken embryos [2]; PFOA 50) was 1.1. For the same compound, the “Mean concentration relative to control, feature Win039_C07” value (chicken embryos [2]; PFOA 50) was 1.3, the “Mean concentration relative to control, feature Win043_C02 (Cystathionine)” value (chicken embryos [2]; PFOA 50) was 1.1 and the “Mean concentration relative to control, feature Win061_C01” value (chicken embryos [2]; PFOA 50) was 0.9. For the same compound, the “Mean concentration relative to control, feature Win066_C03” value (chicken embryos [2]; PFOA 50) was 1, the “Mean concentration relative to control, feature Win088_C02” value (chicken embryos [2]; PFOA 50) was 1 and the “Mean concentration relative to control, feature Win006_C03” value (chicken embryos [2]; PFOA 250) was 1.1*. The “Mean concentration relative to control, feature Win011_C02 (Isoleucine)” value (chicken embryos [2]; PFOA 250) was 1.1*, the “Mean concentration relative to control, feature Win027_C13” value (chicken embryos [2]; PFOA 250) was 0.8* and the “Mean concentration relative to control, feature Win031_C03 (Citric acid)” value (chicken embryos [2]; PFOA 250) was 1. The “Mean concentration relative to control, feature Win034_C08 (Tyrosine)” value (chicken embryos [2]; PFOA 250) was 1, the “Mean concentration relative to control, feature Win034_C09 (Tyrosine)” value (chicken embryos [2]; PFOA 250) was 1.0 and the “Mean concentration relative to control, feature Win039_C07” value (chicken embryos [2]; PFOA 250) was 1.3. The “Mean concentration relative to control, feature Win043_C02 (Cystathionine)” value (chicken embryos [2]; PFOA 250) was 1.1, the “Mean concentration relative to control, feature Win061_C01” value (chicken embryos [2]; PFOA 250) was 0.9 and the “Mean concentration relative to control, feature Win066_C03” value (chicken embryos [2]; PFOA 250) was 1. The “Mean concentration relative to control, feature Win088_C02” value (chicken embryos [2]; PFOA 250) was 1, the “Mean concentration relative to control, feature 118.0284@2.480333 (C4H6O4)” value (chicken embryos [2]; LC, PFOA 50) was 1 and the “Mean concentration relative to control, feature 122.0486@0.675613” value (chicken embryos [2]; LC, PFOA 50) was 1.1. The “Mean concentration relative to control, feature 126.0428@1.2278157 (Thymine)” value (chicken embryos [2]; LC, PFOA 50) was 1.1, the “Mean concentration relative to control, feature 146.0362@0.7772238” value (chicken embryos [2]; LC, PFOA 50) was 1.1 and the “Mean concentration relative to control, feature 159.0686@1.1608156” value (chicken embryos [2]; LC, PFOA 50) was 1. For the same compound, the “Mean concentration relative to control, feature 164.0449@0.7694838” value (chicken embryos [2]; LC, PFOA 50) was 1.1, the “Mean concentration relative to control, feature 202.1024@5.0303197 (C8H14N2O4)” value (chicken embryos [2]; LC, PFOA 50) was 1.1 and the “Mean concentration relative to control, feature 203.1162@0.5130696” value (chicken embryos [2]; LC, PFOA 50) was 1.1. For the same compound, the “Mean concentration relative to control, feature 213.2458@7.4887733” value (chicken embryos [2]; LC, PFOA 50) was 1, the “Mean concentration relative to control, feature 215.047@1.6260729 (C5H14NO6P)” value (chicken embryos [2]; LC, PFOA 50) was 1.0 and the “Mean concentration relative to control, feature 226.0721@1.9460537” value (chicken embryos [2]; LC, PFOA 50) was 1. The “Mean concentration relative to control, feature 231.0174@1.6241412” value (chicken embryos [2]; LC, PFOA 50) was 1, the “Mean concentration relative to control, feature 233.1265@2.535991” value (chicken embryos [2]; LC, PFOA 50) was 1.1 and the “Mean concentration relative to control, feature 250.1317@2.1334834” value (chicken embryos [2]; LC, PFOA 50) was 1.1. The “Mean concentration relative to control, feature 260.0508@0.69984084” value (chicken embryos [2]; LC, PFOA 50) was 0.6**, the “Mean concentration relative to control, feature 276.0173@1.6283482” value (chicken embryos [2]; LC, PFOA 50) was 1 and the “Mean concentration relative to control, feature 278.0939@1.3354088” value (chicken embryos [2]; LC, PFOA 50) was 1. The “Mean concentration relative to control, feature 293.0903@1.5739433” value (chicken embryos [2]; LC, PFOA 50) was 1, the “Mean concentration relative to control, feature 307.2147@7.5065937 (C18H29NO3)” value (chicken embryos [2]; LC, PFOA 50) was 1.3** and the “Mean concentration relative to control, feature 310.178@7.5343466” value (chicken embryos [2]; LC, PFOA 50) was 1. The “Mean concentration relative to control, feature 339.3861@9.528681” value (chicken embryos [2]; LC, PFOA 50) was 1.4*, the “Mean concentration relative to control, feature 342.2883@7.526812” value (chicken embryos [2]; LC, PFOA 50) was 0.9** and the “Mean concentration relative to control, feature 348.0675@1.5761927” value (chicken embryos [2]; LC, PFOA 50) was 1. For the same compound, the “Mean concentration relative to control, feature 355.9454@0.68034226” value (chicken embryos [2]; LC, PFOA 50) was 1, the “Mean concentration relative to control, feature 362.1467@0.8461036” value (chicken embryos [2]; LC, PFOA 50) was 1.1 and the “Mean concentration relative to control, feature 366.1431@1.4228548” value (chicken embryos [2]; LC, PFOA 50) was 1. The “Mean concentration relative to control, feature 373.296@9.044806” value (chicken embryos [2]; LC, PFOA 50) was 1, the “Mean concentration relative to control, feature 375.3108@8.995564” value (chicken embryos [2]; LC, PFOA 50) was 1 and the “Mean concentration relative to control, feature 389.2686@9.046645” value (chicken embryos [2]; LC, PFOA 50) was 1. For the same compound, the “Mean concentration relative to control, feature 407.0999@1.585909” value (chicken embryos [2]; LC, PFOA 50) was 1, the “Mean concentration relative to control, feature 412.135@2.4779084 (C17H24N4O6S)” value (chicken embryos [2]; LC, PFOA 50) was 1 and the “Mean concentration relative to control, feature 444.3607@10.33052” value (chicken embryos [2]; LC, PFOA 50) was 0.9. The “Mean concentration relative to control, feature 471.9819@0.685074” value (chicken embryos [2]; LC, PFOA 50) was 1, the “Mean concentration relative to control, feature 489.1508@8.562614” value (chicken embryos [2]; LC, PFOA 50) was 0.8* and the “Mean concentration relative to control, feature 509.1184@2.4798179” value (chicken embryos [2]; LC, PFOA 50) was 1. The “Mean concentration relative to control, feature 525.2855@8.361063” value (chicken embryos [2]; LC, PFOA 50) was 1.1, the “Mean concentration relative to control, feature 545.2492@8.463657” value (chicken embryos [2]; LC, PFOA 50) was 1.1 and the “Mean concentration relative to control, feature 558.4095@9.459733” value (chicken embryos [2]; LC, PFOA 50) was 1.2. The “Mean concentration relative to control, feature 565.1902@0.7699907” value (chicken embryos [2]; LC, PFOA 50) was 1.1, the “Mean concentration relative to control, feature 577.2747@9.25652” value (chicken embryos [2]; LC, PFOA 50) was 1 and the “Mean concentration relative to control, feature 581.1643@0.77029324” value (chicken embryos [2]; LC, PFOA 50) was 1.1.
